Data reported in a melting point compilation (Tetko et al.; mined from patent text by program, amines drawn as free bases though some values may be those of a salt).

Row | SMILES | melting point [°C]
1 | COc1ccc(S(=O)(=O)Nc2cccc3c2N(C)c2ccccc2O3)cc1 | 151 to 153
2 | NNC(=O)c1[nH]cc(OCc2ccccc2)c(=O)c1Br | 184
3 | CCCCCCCCCCCCS(=O)(=O)Nc1cc(NC(=O)c2ccc(F)c(F)c2)ccc1OC | 132
4 | CC(=O)c1ccc(NC(=O)c2cc(Cl)cc(Cl)c2)cc1 | 199 to 200
5 | CC1(C)C(=O)C(c2cc(F)cc(F)c2)=C1c1ccc(S(C)(=O)=O)cc1 | 113 to 114
6 | CCC(C)Nc1nc2ccccc2c(=O)o1 (centres undefined) | 122 to 123
7 | OCC1OC(n2ccnn2)C(O)C1O (centres undefined) | 123 to 125
8 | O=C(O)C#Cc1ccc(Cl)cc1Cl | 161 to 163
9 | CCOC(=O)c1sc(N)nc1-c1ccccc1Cl | 162 to 164
10 | CCOC(=O)c1cc(COc2cc3ncnc(Nc4ccc(Cl)cc4F)c3cc2OC)ccn1 | 212 to 214
11 | COc1cc(C(C)C)c2c(c1)S(=O)(=O)N(COC(=O)c1c(C)noc1C)C2=O | 137 to 139
12 | NC(=O)CC(C(N)=O)(c1ccc(F)cc1)c1ccc(F)cc1 | 192 to 193
13 | COC(=O)C1Cc2c([nH]c3ccccc23)C(c2ccc(Cl)cc2Cl)N1C(=O)CCl (centres undefined) | 106 to 109
14 | CCC(=O)Nc1ccc(C(=O)C(C)Br)cc1 (centres undefined) | 126 to 127
15 | Cc1ccc(C(=O)n2nc(Nc3ccc(O)cc3)nc2N)cc1 | 221 to 223
16 | CCOC(=O)N1CCc2c(nc3ccccc3c2C)C(Cl)C1 (centres undefined) | 131
17 | C=CCN1C(=O)NC(=C(C(=O)OCC)C(=O)OCC)C1=O | 91 to 92
18 | COC(=O)c1cc(OCC=C(Cl)Cl)cc(Cl)c1O | 86
19 | COc1cccc([C@H]2CCCN2[S@@](=O)C(C)(C)C)c1 | 45 to 50
20 | CC(CN1CCCC1)N1c2ccccc2Sc2ccc(C(=O)NCC3CCC3)cc21 (racemic) | 133
21 | CC(C)(C)C(O)(CC#CBr)C(Oc1ccc(Cl)cc1)n1cncn1 (centres undefined) | 156 to 160
22 | Cc1cccc(C)c1-c1cccc(C(N)=O)c1 | 123 to 125
23 | CCOc1nc2ccccc2nc1NC(=O)N1CCN(c2cc(OC)cc(OC)c2)CC1 | 149 to 150
24 | COC(=O)c1ccc([C@H]2CC[C@H](C=O)CC2)cc1 | 84 to 85
25 | CC(C)C[C@H](NC(=O)c1ccc2c(c1)Nc1ccccc1S2)C(=O)N[C@H]1CCOC1OC(=O)c1ccccc1 (some centres undefined) | 193 to 195

Row | SMILES | melting point [°C]
26 | Cc1ccc(S(=O)(=O)OCc2c([N+](=O)[O-])cccc2[N+](=O)[O-])cc1 | 98 to 99
27 | CC(C)C(Br)=C(c1ccccc1)c1ccccc1 | 112 to 114
28 | O=C(Nc1ccccc1OCCCBr)c1cccc2[nH]ccc12 | 145
29 | CCC1CC2C3CCc4cc(OC)ccc4C3CCC2(CC)C1=O (centres undefined) | 101 to 102
30 | CCNc1ccc(NC(=O)c2ccc(C)c(Nc3nccc(-c4cccnc4)n3)c2)cc1C(F)(F)F | 178 to 180
31 | COc1ccc(N2C(=O)N(c3cccc(C(N)=O)c3)c3nc(Nc4ccccc4)ncc3C2C)c(F)c1 (centres undefined) | 282 to 286
32 | O=C(NC[C@H](O)c1ccccc1)c1ccnc(N2CCN(Cc3ccc(F)cc3)C2=O)c1 | 97 to 99
33 | Cc1c(C)c2c(c(C)c1NC(=O)CC(C)(C)C)C(c1ccc(F)cc1)C(C)(C)O2 (centres undefined) | 194 to 195
34 | NC(=O)c1cc2c(OCCCN3CCN(C(c4ccccc4)c4ccccc4)CC3)cccc2[nH]1 | 222 to 223
35 | COc1ccc(N2CCN(c3ccc(N=C=S)cc3)CC2)cc1 | 181
36 | CCOC(=O)C1Cc2c(OC)cc(Cl)c(OC)c2CO1 (centres undefined) | 95
37 | Cc1cc(Cl)cc(C#N)c1 | 132 to 133
38 | Nc1c(Cl)cc(C(=O)O)c2c1CCCO2 | 226
39 | COc1ccc(-c2ccnc3[nH]c4ccccc4c23)cc1 | 208 to 210
40 | CNC1=NS(=O)(=O)N=C1NCCSCc1csc(N(C)C)n1 | 227 to 229
41 | CCCNC(=O)c1nc2n(c1C)CCc1ccccc1C2OC1CCN(C)CC1 (centres undefined) | 60
42 | CC(C)Oc1c(C(=O)O)oc(C(=O)O)c1OC(C)C | 131 to 132
43 | c1ccc(-n2c(Cc3cccnc3)nc3ccccc32)cc1 | 115 to 116
44 | C=CCNC(=O)C1CCc2cc(Oc3ccccc3)ccc2O1 (centres undefined) | 104 to 106
45 | CCc1cnc(N2CCC(c3nc4cc(-c5ccc(S(C)(=O)=O)cc5F)ccc4[nH]3)CC2)nc1 | 186 to 190
46 | CCC(O)(c1ccccc1)c1ccc(C(=O)O)cc1 (centres undefined) | 128 to 130
47 | CCC(CC)(CC(=O)Nc1cccc(OCc2ccc3ccc(OCc4ccccc4)cc3n2)c1)C(=O)O | 89 to 95
48 | ON=Cc1ccc2c(c1)ncn2-c1cccc(CNCc2ccc(F)c(F)c2)c1 | 165 to 167
49 | Nc1ccnc(-c2nc(=O)c3ccccc3s2)c1 | 208
50 | CC(C)S(=O)(=O)NCC(C)(F)c1ccc(-c2ccc(CC#N)cc2)cc1 (centres undefined) | 155 to 157

Row | SMILES | melting point [°C]
51 | O=C(Nc1ncccn1)c1c(O)ccc2cc(-c3cccc(O)c3)ccc12 | 156
52 | Cc1cc(OS(=O)(=O)C(F)(F)F)ccc1-c1cc(C(F)(F)F)nn1-c1ccc(S(C)(=O)=O)cc1 | 175
53 | CC1(C)CCCN(CC2(O)CCNCC2)C1 | 48 to 52
54 | COC(=O)c1cncn1C1c2ccccc2C=CC1(C)C (centres undefined) | 60 to 61
55 | CCC(=NOCC=CCl)C1=C(O)CC(c2ccc(NS(C)(=O)=O)cc2)CC1=O (centres undefined) | 125 to 127
56 | Clc1ccc(C(CCC2CCCC2)Cn2cncn2)c(Cl)c1 (centres undefined) | 71
57 | O=C1N(Cc2ccc(=O)[nH]c2)c2ccccc2C12COc1cc3c(cc12)OCCO3 (centres undefined) | 249 to 250
58 | CCCN1C(=O)N2C(=NCC2c2ccccc2)c2[nH]cnc21 (centres undefined) | 258 to 264
59 | NC(=O)c1ccnc(-c2cccc3cc(Cc4cc(F)cc(Cl)c4)sc23)c1 | 173 to 175
60 | CCCc1cc(-c2noc3cc(O)ccc23)c(CC)cc1O | 125 to 127
61 | CCCCCCC#CC(O)C1=Nc2ccc(F)cc2C(=O)C1C (centres undefined) | 153 to 154
62 | CCCC(=O)n1nc2c(c1NC)c(=O)n(CCC)c(=O)n2Cc1cccc(Cl)c1 | 152 to 153
63 | CC(C)(C)c1ccc(O)c(S(=O)(=O)CCl)c1 | 94 to 95
64 | Cc1ccc(C(=O)N[C@H](C)C(N)=O)cc1-n1c(C)cc(OCc2ccccc2CNC(=O)Nc2cc(C(C)(C)C)nn2-c2ccc(O)c(Cl)c2)c(Cl)c1=O | 192 to 193
65 | CCCc1c(OCc2ccc(/C=C3\SC(=S)NC3=O)cc2)ccc(C(=O)c2ccccc2)c1O | 229 to 230
66 | CC(C)CS(=O)(=O)c1ccc(N)c(S(=O)(=O)CC(C)C)c1 | 118 to 120
67 | CCC1(C2CCN(c3ncnc4cc(OC)c(OC)cc34)CC2)CO1 (centres undefined) | 138 to 139
68 | CCCCCCCCCCCCCCCc1c([N+](=O)[O-])cc([N+](=O)[O-])c(O)c1C(=O)O | 78 to 82
69 | Cc1csc2nc(Sc3ccccc3NC(=O)N[C@@H](Cc3ccc(NC(=O)c4c(Cl)cncc4Cl)cc3)C(=O)O)cnc12 | 193
70 | CCOC(=O)c1cc2cc(Br)ccc2s1 | 94 to 95
71 | CC(C)[C@H]1OC[C@H](Nc2nnc(Cc3ccc(O)nc3)c3ccccc23)CO1 | 108 to 109
72 | CNC(=S)N(C)Cc1ccc(Cl)nc1 | 109 to 110
73 | CCOP(=O)(OCC)/C(O)=C/c1cn(-c2ccccc2)nc1OCc1ccc(OCc2nc(-c3ccco3)oc2C)c(OC)c1 | 147 to 149
74 | CC(C)C[C@@H](C(=O)O)n1sc2ccc(F)cc2c1=O | 161 to 162
75 | CC[C@@H]1CN(c2c(F)c(N)c3c(=O)c(C(=O)O)cn(C4CC4)c3c2OC)CC[C@H]1O (relative stereo) | 217 to 219

Row | SMILES | melting point [°C]
76 | COc1ccccc1NC(=O)[C@@H]1Cc2[nH]cnc2CN1C(C)=O | 159
77 | CC(=O)C=Cc1ccc(CCNS(=O)(=O)c2ccc(Cl)cc2)cc1 | 111 to 113
78 | CC(=O)OC1CSC(Oc2cccnc2-c2ccc(F)cc2)C(OC(C)=O)C1OC(C)=O (centres undefined) | 149
79 | CC(CCn1ccnc1)N=C1c2cccc3cccc(c23)N1C(c1ccccc1)c1ccccc1 (centres undefined) | 55 to 64
80 | Cc1ccc(C(=O)[C@H]2C[C@H]2C(=O)O)cc1 (relative stereo) | 165 to 166
81 | CCCCc1nnc(-c2ccc([N+](=O)[O-])cc2)o1 | 68 to 70
82 | CS(=O)(=O)c1ccc(Br)cc1C(F)(F)F | 110 to 112
83 | CC(C)(C)C(=O)OCCn1nc(-c2cc(C(C)(C)C)c(O)c(C(C)(C)C)c2)c2cccnc21 | 85 to 87
84 | Cn1c(/C=C/CO)c(-c2ccccc2)c2ccccc2c1=O | 209
85 | CCCc1c(C(=O)C=C(C)C)c2ccc(C(N)=O)cc2n1Cc1cc2c(cc1Cl)OCO2 | 227 to 229
86 | CC(C)OP(=O)(/C=C/CCn1cnc2c(N)nc(N)nc21)OC(C)C | 211 to 213
87 | COc1cc(OC)nc(C2(O)OC(=O)c3c(-c4ccco4)ccnc32)n1 (centres undefined) | 198 to 204
88 | COc1ccccc1N1C=C(C(Cl)(Cl)Cl)CN(C(Cl)(Cl)Cl)N1 | 93 to 95
89 | CSc1ccc(COc2cccc(C(=O)Nc3ccc(C#N)cc3)c2)cc1 | 147 to 148
90 | CC(=O)NCC1CCCc2cc(NS(=O)(=O)c3cccc(F)c3)ccc21 (centres undefined) | 136 to 137
91 | CC(=O)OC1CSC(Oc2ccc(-c3ccc(F)nc3)nc2Cl)C(OC(C)=O)C1OC(C)=O (centres undefined) | 226
92 | CCCC(=O)NS(=O)(=O)c1ccc(NC(=O)N2CCc3c(OC)ccc(N4CCN(C)CC4)c3C2)cc1 | 185 to 190
93 | NCCCc1ccc(OCCC2Oc3ccccc3N(Cc3ccc(Cl)cc3)C2=O)cc1 (centres undefined) | 95 to 97
94 | CN(C)C=Nc1n[nH]c2ncnc(Nc3cccc(Cl)c3)c12 | 243 to 245
95 | N#CC1=C(Nc2ccc(F)cc2)c2ccccc2CC1 | 151 to 153
96 | OCC1CCn2c(nc3ccccc32)S1 (centres undefined) | 112 to 113
97 | CC(=O)/C=C(\C)c1ccc(-c2ccccc2F)cc1 | 92
98 | O=C(O)C1=Cc2cc(Cl)c(Oc3ccc(C(=O)O)cc3)cc2OC1C(F)(F)F (centres undefined) | > 300
99 | CNC(=O)c1cc2nc(C(F)(F)F)ccc2cc1NC(=O)c1cc(Br)nn1-c1ncccc1Cl | 127 to 129
